From article PMC3284447, “In vivo antinociception of potent mu opioid agonist tetrapeptide analogues and comparison with a compact opioid agonist - neurokinin 1 receptor antagonist chimera” (Molecular Brain, 2012)
“Also recorded” adds a separate entry of the source.

Experiments:
DOR [1] = assay: MVD (mouse vas deferens) tissue bioassay, DOR-representative; conditions: SBCHM01 compared to AN81, MVD EC50
Text: Aba: 4-amino-1,2,4,5-tetrahydro-2-benzazepin-3-on; BBB: blood-brain barrier; CNS: central nervous system; DML: designed multiple ligand; Dmt: 2',6'-dimethyl-(S)-tyrosine; DOR: δ-opioid receptor; GPI: Guinea pig ileum; KOR: κ-opioid receptor; MOR: μ-opioid receptor; MPE: maximal possible effect; MVD: mouse vas deferens; NK1: neurokinin 1.

DOR [2] = assay: DOR binding, displacement of [^3H]DSLET from rat brain membranes; conditions: SBCHM01 compared to AN81, Ki
male C57Bl6 mice [3] = assay: hot water tail-flick test, acute antinociception after i.v. administration; assay type: in vivo, mouse; conditions: i.v.; for %MPE: 120 min, ± SEM
Method: (§1) Nociceptive responses to thermally-induced pain were assessed by the hot water tail-flick test using male C57Bl6 mice. Animals (weighing 25-28 g) were maintained on a normal light-dark cycle and testing occurred during the light cycle. Mice were injected intravenously (i.v.) with the examined drug, dissolved in saline, at different doses. For the verification of drug-induced antinociceptive tolerance, the investigated compounds were administered (i.v.) once per day for 5 days (2 and 4 mg/kg for SBCHM01 and 4 mg/kg for both AN81 and BVD03) and the analgesic effect was measured on the first and the fifth day of the experiment. In each case (both acute and chronic treatment) the effect was measured over a minimum time period of 120 minutes. The antinociceptive effect was measured in triplicate at the following time points post-injection: 5, 15, 30, 60, 120 min (and 180 min for SBCHM01; due to the strong and long-lasting analgesic effect produced by AN81 (Figure 2C), there was no possibility to prolong the experiment, which - if prolonged - could in consequence cause major damage to the animal's tail, thus giving spurious nociceptive responses). Responses to thermal hot stimulus were assessed by the latency with which the mouse removed its tail from 55°C water. A cut-off time of 10 s was used in order to prevent tissue damage.
(§2) In order to compare the antinociceptive effect induced by the examined drugs, morphine was used as a standard reference.
(§3) Data are presented as means ± standard errors of the mean (SEM). All of the calculations and statistical analysis were performed using Prism 5.0 (Graph Pad Software, San Diego, CA, USA). The nociceptive scores were analyzed using a two-way Anova with Bonferroni's post hoc test. The p value (the value of probability) as well as inferential statistics - F test, which include information about the obtained magnitude or value of the test statistic and degrees of freedom, are represented.

male C57Bl6 mice [4] = assay: hot water tail-flick test, tolerance after daily i.v. administration for 5 days; assay type: in vivo, mouse
Method: as §1, §2, §3

NK1R = conditions: calculated using the Schild's equation; cited from earlier work
Text: Table 1 In vitro functional activities and affinities of opioid- and opioid-NK1 ligands | column: NK1R pA2^a

hNK1R = conditions: [^3H]-SP, hNK1-CHO membranes; means ± SEM of three independent experiments; one site competition fitting; cited from earlier work
Text: Table 1 In vitro functional activities and affinities of opioid- and opioid-NK1 ligands | column: hNK1R Ki (nM)^b

MOR [5] = system: MOR; parameters: method as in PMID 21413804; conditions: GPI tissue bioassay; means of 3-6 experiments ± SEM; cited from earlier work
DOR [6] = system: DOR; parameters: method as in PMID 21413804; conditions: MVD tissue bioassay; means of 3-6 experiments ± SEM; cited from earlier work
KOR = conditions: [^3H]U69,593, guinea pig brain membrane; cited from earlier work
Text: Table 1 In vitro functional activities and affinities of opioid- and opioid-NK1 ligands | column: KOR Ki (nM)^e, f

MOR [7] = biological target: MOR; parameters: method as in PMID 21413804; conditions: [^3H]DAMGO, rat brain membrane; cited from earlier work
DOR [8] = biological target: DOR; parameters: method as in PMID 21413804; conditions: [^3H]DSLET, rat brain membrane; cited from earlier work
rodents = conditions: administered centrally or peripherally in rodents; cited from earlier work
Text: From our previous results, we selected three opioid tetrapeptides with promising in vitro potency for further in vivo evaluation. […] We recently identified the opioid ligands H-Dmt-NMe-D ...

MOR [9] = system: MOR; parameters: method as in PMID 8981054, PMID 7712029; conditions: cited from earlier work

Row | Substance | fold decrease in DOR potency vs AN81 (DOR [1]) [fold] | fold decrease in DOR binding vs AN81 (DOR [2]) [fold] | %MPE (male C57Bl6 mice [3]; 2 mg/kg, first day of treatment) [%] | %MPE (male C57Bl6 mice [3]; 4 mg/kg, vs morphine: BVD03 p < 0.05, SBCHM01 p > 0.05) [%] | antinociceptive activity relative to morphine (male C57Bl6 mice [3]; 4 mg/kg, whole period of measurements, morphine i.p. same dose) | synergistic or potentiating effect of combined pharmacophores (male C57Bl6 mice [3]; opioid and NK1 pharmacophores in a single entity) | tolerance development after repetitive administration (male C57Bl6 mice [4]; daily for 5 days, i.v. (morphine i.p.), measured on day 5) | %MPE (male C57Bl6 mice [4]; day 1, i.v., 2 mg/kg, 3 h, ± SEM) [%] | potency at 180 min (male C57Bl6 mice [4]; day 1, SBCHM01 2 mg/kg i.v., morphine 4 mg/kg i.p.) | antinociceptive activity on the fifth day (male C57Bl6 mice [4]; day 5, i.v., 2 mg/kg daily, up to 3 h) | %MPE (male C57Bl6 mice [4]; day 5, i.v., 4 mg/kg daily, 30 min, ± SEM (AN81 7-10 animals, p < 0.001; SBCHM01 8-10 mice)) [%] | NK1R pA2 (NK1R) | Ki (hNK1R) [nM] | EC50 (MOR [5]) [nM] | EC50 (DOR [6]) [nM] | Ki (KOR) [nM] | Ki (MOR [7]) [nM] | Ki (DOR [8]) [nM] | tolerance development compared to morphine (rodents) | affinity and selectivity for the MOR (MOR [9])
1 | H-Dmt-D-Arg-Aba-Gly-NMe-3',5'-Bn(CF3)2 [SBCHM01] | 103 | 17 | 85.12 ± 5.43 | 80.47 ± 5.29 | slightly weaker during the whole period of measurements | neither an synergistic nor potentiating antinociceptive effect appears | could not circumvent opioid induced tolerance; also recorded: mice had developed opioid-induced tolerance; also recorded: lower dose of SBCHM01 does not reduce the extent of tolerance development; also recorded: complete loss in antinociception on the fifth day of the experiment; also recorded: lost its antinociceptive potency completely upon chronic injection | 71.13 ± 4.71 | decrease in potency is clearly visible | Complete abolishment of SBCHM01's antinociceptive activity on the fifth day | 12.25 ± 7.33 | 7.8 | 0.5 ± 0.1 | 8.51 ± 0.62 | 43.3 ± 6.3 | 445 ± 81 | 0.416 ± 0.012 | 10.4 ± 0.6 |  | 
2 | H-Tyr-D-Ala-Phe-Gly-Tyr-Pro-Ser-NH2 [dermorphin] |  |  |  |  |  |  |  |  |  |  |  |  |  |  |  |  |  |  | induces less tolerance development when compared to morphine | high affinity and selectivity for the MOR
